This test concerns the target T1, δ opioid receptors (Mus musculus, UniProt P32300).
T1 construct: antagonism of the delta-selective agonist DPDPE
Description: opioid antagonism against receptor selective agonists (DAMGO, μ; Cl 977, κ; DPDPE, δ) in electrical stimulated guinea-pig ileum (GPI) and mouse vas deferens (MVD) preparations. The test is classed as cell-based. The protocol: δ-Antagonism was assessed using the electrical stimulated guinea-pig ileum longitudinal muscle preparation (GPI; containing μ and κ opioid receptors) and mouse vas deferens preparation (MVD; containing μ, κ and δ opioid receptors) (H. Schmidhammer et al., J. Med. Chem., Vol. 32: 418-421, 1989; H Schnmidhammer et al., J. Med. Chem., Vol. 33:1200-1206,1990). The activity of the compound 1 of the Examples for inhibiting the suppression of contraction of the organs by three receptor selective agonists (DAMGO, μ; Cl 977, κ; DPDPE, δ) was measured.

Counter-ions that a name gives are not always drawn.

T1 sequence (P32300 whole entry): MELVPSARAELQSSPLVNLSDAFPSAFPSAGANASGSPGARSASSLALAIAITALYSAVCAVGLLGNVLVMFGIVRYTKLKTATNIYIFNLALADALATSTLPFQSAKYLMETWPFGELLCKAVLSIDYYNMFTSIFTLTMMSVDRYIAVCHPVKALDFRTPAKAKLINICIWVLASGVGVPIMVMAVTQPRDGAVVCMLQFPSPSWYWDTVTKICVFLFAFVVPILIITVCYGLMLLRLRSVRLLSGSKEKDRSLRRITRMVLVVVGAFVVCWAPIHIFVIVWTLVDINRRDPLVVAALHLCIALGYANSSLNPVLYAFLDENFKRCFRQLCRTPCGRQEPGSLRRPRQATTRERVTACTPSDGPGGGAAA

As for `CCO[C@@]12Cc3c([nH]c4ccccc34)[C@]3(C)Oc4c(O)ccc5c4[C@@]31CCN(CC1CC1)[C@@H]2C5` [compound 1, 17-(Cyclopropylmethyl)-6,7-dehydro-4,5α-epoxy-14-ethoxy-3-hydroxy-5-methyl-6,7-2',3'-indolomorphinan hydrochloride], the “opioid antagonism (inhibiting the suppression of contraction of the organs by receptor selective agonists)” value (GPI and MVD preparations, agonists DAMGO (μ), Cl 977 (κ), DPDPE (δ)) is recorded as “δ-selective opioid antagonism”. Also, where the note is “antagonism of Cl 977 (κ) vs DPDPE (δ)”, the κ/δ selectivity ratio entry is reported as “very good”. Also, the μ/δ selectivity ratio result (antagonism of DAMGO (μ) vs DPDPE (δ)) is given as “very good”.

The record behind these values is US6136817A, “Opioid receptor antagonist compounds” (Astra AB, priority 1994, dated 2000).
